Assay results taken from patent US11331368B2, “Angiotensin receptor agonists and uses thereof” (Monash University, priority 2017, dated 2022).
“Also recorded” adds a separate entry of the source. Square brackets hold non-standard residues; d marks the D form. Ends that are not written are not given here. βVal = β-valine (β-amino acid form of Val); βIle = beta-form isoleucine

What was measured:
[1] = tested on: male FVB/N mice on high salt diet, heart; assay: High salt (5%) diet intervention model, heart; format: in vivo, mouse
Summary of the method: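 Male FVB/N mice fed 5% salt diet for 8 weeks (controls 0.35% NaCl); from week 4, AT2R agonist at 75 pmol/kg/min or saline given subcutaneously by osmotic minipump for 4 weeks on continued high salt. Heart collagen by picrosirius red, % interstitial staining averaged over eight fields; immunofluorescence for fibrosis/inflammation markers.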

[2] = tested on: male FVB/N mice on high salt diet, kidney; assay: High salt (5%) diet intervention model, kidney; format: in vivo, mouse; settings: 75 pmol/kg/min s.c., weeks 5-8
Experimental: (§1) C) In the intervention (or reversal) model, male FVB/N mice were treated with selective AT2Rs agonists after the establishment of cardiovascular disease using a high salt diet, in order to reverse cardiovascular pathologies. In some experiments, the ACE inhibitor captopril (dose) or the ARB candesartan cilexetil (dose) were given for 4 weeks in drinking water. Organs examined included heart, kidney and liver and these were compared to either untreated mice or high salt-fed mice that were treated with saline.
(§2) Mice were placed on either a normal rodent diet (0.35% NaCl) which acted as control or a high salt diet (5% sodium in food chow) for 8 weeks. After 4 weeks, mice were also treated subcutaneously (via osmotic mini-pump) with either saline or an AT2R agonist (75 pmol/kg/min subcutaneously) for 4 weeks. Mice continued to be fed a high salt diet whilst receiving these treatments.
To measure collagen deposition, frozen sections of heart, kidney or aorta (all 5 μm thickness) were air dried for 10 minutes and were brought through 3 times xylene (2 minutes each), and 3 times absolute alcohol washes before being rinsed in tap H2O for 30 seconds. Staining with an optimal concentration of picrosirius red (in this instance 0.05% picrosirius red diluted in saturated picric acid) was performed and left for an hour. Sections were then rinsed in water and differentiated in 0.01M HCl for 2 minutes, followed by dehydration via 3 times absolute alcohol washes. Then, slides were brought through 3 times xylene washes before being cover slipped according to standard histological techniques using DPX as the mounting medium. Images were taken under ×20 magnification, using bright field (Olympus, BX51) and circularized polarized light microscopy (DM IRB, Leica) while percentage of positive interstitial collagen staining per total field of view was quantified using ImageJ 1.46 software (Java, NIH), and averaged out from a total of eight views as the final percentage collagen content in a particular animal.
Kidney sections used either picrosirius red staining as described above or using Mason's Trichrome staining as described below.
Formalin fixed, paraffin embedded kidneys were sectioned at thickness of 4 μm and were stained with Masson's trichrome according to standard procedures for analysis of kidney fibrosis. […] Sections were re-fixed in Bouin's solution for 1 hour at 56° C. to improve staining quality then rinsed in running tap water for 5-10 minutes to remove yellow colour. Following this, sections were stained in Weigert's iron hematoxylin working solution for 10 minutes. Rinsed in running warm tap water for 10 minutes. Washed in distilled water. Stained in Biebrich scarlet-acid fuchsin solution for 10-15 minutes. Washed in distilled water. Differentiated in phosphomolybdic-phosphotungstic acid solution for 10-15 minutes or until collagen was no longer red. Sections were transferred directly (without rinse) to aniline blue solution and stained for 5-10 minutes. Rinsed briefly in distilled water and differentiated in 1% acetic acid solution for 2-5 minutes. Washed in distilled water. […] Mounted with DPX mounting medium.
Quantification of kidney fibrosis was performed using images captured with the Aperio scanner (Monash Histology Platform, Monash University), with ×5 magnification. Each kidney section had 5 different fields of view photographed at this magnification. Percentage of tubulointerstitial collagen was analysed and quantified using ImageJ 1.48 software (Java, NIH), and the percentage from 5 random fields of view were averaged for final percentage of collagen for that particular animal. All analysis of collagen expression was conducted in a blinded fashion.

[3] = tested on: male FVB/N mice on high salt diet, liver; assay: High salt (5%) diet intervention model, liver; format: in vivo, mouse; settings: weeks 5-8, peptides 75 pmol/kg/min s.c., Cand 2 mg/kg/day, captopril 3 mg/kg/day
Experimental: as §1, §2
Liver sections used either picrosirius red staining or Masson's trichome staining as described above. Higher concentrations of picrosirius red were often used under polarized light microscopy. The liver was removed and sectioned with half of the liver placed in 10% formalin and the rest frozen in liquid nitrogen before being stored in ˜80° C. freezer for future use. Formalin fixed, paraffin embedded livers were sectioned at thickness of 4 μm and were stained with Masson's trichrome according to standard procedures for analysis of liver fibrosis. […] Sections were re-fixed in Bouin's solution for 1 hour at 56° C. to improve staining quality then rinsed in running tap water for 5-10 minutes to remove yellow colour. Following this, sections were stained in Weigert's iron hematoxylin working solution for 10 minutes. Rinsed in running warm tap water for 10 minutes. Washed in distilled water. Stained in Biebrich scarlet-acid fuchsin solution for 10-15 minutes.
Washed in distilled water. Differentiated in phosphomolybdic-phosphotungstic acid solution for 10-15 minutes or until collagen was no longer red. Sections were transferred directly (without rinse) to aniline blue solution and stained for 5-10 minutes. Rinsed briefly in distilled water and differentiated in 1% acetic acid solution for 2-5 minutes. Washed in distilled water. […] Mounted with DPX mounting medium. Quantification of liver fibrosis was performed using images captured with the Aperio scanner (Monash Histology Platform, Monash University), with ×5 magnification. Each liver section had 5 different fields of view photographed at this magnification. Percentage of interstitial and perivascular collagen was analysed and quantified using ImageJ 1.48 software (Java, NIH), and the percentage from 5 random fields of view were averaged for final percentage of collagen for that particular animal. All analysis of collagen expression was conducted in a blinded fashion.

[4] = Systolic blood pressure by tail-cuff in high salt-fed mice; format: in vivo, mouse; settings: data not shown
Experimental: The incision area was sutured with 6/0 DY silk ([…] Ltd) and antibiotic powder applied ([…], Pfizer) followed by intramuscular injection of the analgesic Cartrophen (0.1 ml of a 1.5 mg/ml stock solution; Biopharm Australia). Systolic blood pressure (SBP) was measured using non-invasive tail-cuff plethysmography apparatus (MC4000 Blood Pressure Analysis System, Hatteras Instrument Inc) before drug treatment (week 0), and then fortnightly. At the end of the 8 week treatment period mice were weighed before being killed by overdose of isoflurane inhalation and cervical dislocation. […] To this end, modified Ang peptides of interest were dissolved in saline and delivered subcutaneously via an implanted osmotic minipump and systolic blood pressure (SBP) was measured fortnightly.

[5] = tested on: male FVB/N mice on high salt diet, kidney; assay: High salt (5%) diet intervention model, kidney; format: in vivo, mouse; settings: 75 pmol/kg/min s.c., weeks 5-8; remark: listed apart in the source
[6] = target: T1, human Angiotensin II Receptor Type 2 (AT2R) (human, UniProt P50052 1-363); assay: AT2R over AT1R, from IC50s of competition radioligand binding; reference AT1R
T1 construct: whole, on cells; also endogenous on human cardiac fibroblasts (functional entries); also called AT2 receptor
T1 sequence (looked up): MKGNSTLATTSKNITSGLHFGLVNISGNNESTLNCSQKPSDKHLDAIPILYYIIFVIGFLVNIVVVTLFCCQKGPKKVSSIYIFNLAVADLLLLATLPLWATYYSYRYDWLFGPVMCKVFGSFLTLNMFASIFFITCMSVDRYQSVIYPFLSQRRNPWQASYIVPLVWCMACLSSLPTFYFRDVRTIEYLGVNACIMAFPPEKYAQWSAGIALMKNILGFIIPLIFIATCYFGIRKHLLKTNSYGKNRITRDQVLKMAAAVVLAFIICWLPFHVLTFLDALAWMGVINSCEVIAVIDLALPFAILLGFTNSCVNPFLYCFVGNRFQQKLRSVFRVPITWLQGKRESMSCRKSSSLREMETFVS
Experimental: (§3) For each experiment, each ligand concentration was tested in duplicate or triplicate, and each experiment was repeated at least 3 separate times.

[7] = target: T1, human Angiotensin II Receptor Type 2 …; assay: competition radioligand binding on HEK-293 cells with AT2R; competitor [125I]-Sar1Ile8Ang II
Experimental: as §3

[8] = target: T2, human Angiotensin II Receptor Type 1 (AT1R) (human, UniProt P30556 1-359); assay: competition radioligand binding on HEK-293 cells with AT1R; competitor [125I]-Sar1Ile8Ang II
T2 construct: whole, on cells; also endogenous on human cardiac fibroblasts (functional entry); also called AT1 receptor
T2 sequence (looked up): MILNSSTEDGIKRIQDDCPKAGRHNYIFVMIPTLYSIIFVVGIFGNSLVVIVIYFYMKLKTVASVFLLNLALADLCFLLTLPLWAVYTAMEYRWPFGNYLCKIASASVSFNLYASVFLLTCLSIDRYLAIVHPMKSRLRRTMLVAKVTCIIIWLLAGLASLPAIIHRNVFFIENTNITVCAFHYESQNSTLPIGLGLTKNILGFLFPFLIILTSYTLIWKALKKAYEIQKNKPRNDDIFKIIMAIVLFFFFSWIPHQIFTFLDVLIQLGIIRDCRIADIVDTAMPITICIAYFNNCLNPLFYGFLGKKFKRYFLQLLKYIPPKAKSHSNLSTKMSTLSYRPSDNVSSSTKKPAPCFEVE
Experimental: as §3

Molecule: CC[C@H](C)[C@@H](CC(=O)N[C@@H](Cc1c[nH]cn1)C(=O)N1CCC[C@H]1C(=O)N[C@@H](Cc1ccccc1)C(=O)O)NC(=O)[C@H](Cc1ccc(O)cc1)NC(=O)[C@@H](NC(=O)[C@H](CCCNC(=N)N)NC(=O)[C@@H](N)CC(=O)O)C(C)C [βIle-Ang II, Asp-Arg-Val-Tyr-β-Ile-His-Pro-Phe]
- TGF-β1 protein in the heart (Western blot) ([1]; 75 pmol/kg/min s.c., weeks 5-8): significantly lower TGF-β1 protein
- myofibroblast differentiation in heart (α-SMA) ([1]; 75 pmol/kg/min s.c., weeks 5-8): reduced myofibroblast differentiation
- MMP-13 protein expression in heart (Western blot) ([1]; weeks 5-8, peptide 75 pmol/kg/min s.c., Cand 2 mg/kg/day, captopril 3 mg/kg/day): normalised MMP-13 to levels observed in the normal salt group
- macrophage infiltration/expression in heart (F4/80) ([1]; weeks 5-8, peptide 75 pmol/kg/min s.c., Cand 2 mg/kg/day, captopril 3 mg/kg/day, listed as β-Ile^5-Ang II): reversed by all agents; also recorded: reduced macrophage infiltration/expression
- expression of P-IκBα (marker for NFκB activation) in heart ([1]; weeks 5-8, peptides 75 pmol/kg/min s.c., Cand 2 mg/kg/day, captopril 3 mg/kg/day, listed as β-Ile^5-Ang II): significantly reduced expression of P-IκBα
- cardiac fibrosis (picrosirius red) ([1]; weeks 5-8 of high salt diet, peptides 75 pmol/kg/min s.c. mini-pump, Cand 2 mg/kg/day, captopril 3 mg/kg/day in drinking water, listed as β-Ile^5-Ang II): reversed high salt-induced cardiac fibrosis
- kidney tubulointerstitial fibrosis (Masson's trichrome) [2]: reversed high salt-induced tubulointerstitial fibrosis
- liver steatosis (Oil Red O) [3]: significantly reduced excess lipid accumulation
- liver fibrosis (picrosirius red, polarized light) ([3]; listed as 8-Ile^5-Ang II): reversed collagen accumulation to levels seen in normal salt group
- liver fibrosis (picrosirius red, polarized light) ([3]; listed as β-Ile^5-Ang II): similarly inhibited the pro-fibrotic effects of high salt in the liver
- systolic blood pressure (SBP) [4]: did not alter SBP
- macrophage infiltration in kidney (F4/80) [5]: reversed

B1: βIle-8-Ang III (peptide)
peptide: RVYIHP[βIle]-OH
notes: synthetic peptide; also called Arg-Val-Tyr-Ile-His-Pro-β-Ile
- Fold AT2R selectivity [6]: 1040 fold
- IC50 [7]: 9.6 nM

B2: βVal-Trp-8-Ang III (peptide)
peptide: R[βVal]YIHPW
notes: synthetic peptide; also called Arg-β-Val-Tyr-Ile-His-Pro-Trp
- IC50 [8]: 1210 nM
